Reference: PubChem BioAssay AID248 (DTP/NCI, 2004)
Toxic doses and inconclusive results are not listed. No stated cut-off is given here; in the data, active means T/C of 150% or more; inactive means T/C below 125%.

Tested on: L1210 leukemia ip in BDF1 mice, survival T/C
Assay: NCI In Vivo Anticancer Drug Screen. Data for tumor model L1210 Leukemia (intraperitoneal) in B6D2F1 (BDF1) mice
Conditions: endpoint: mean survival time, higher = longer survival
How it was run: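 Each compound was tested against a transplantable tumor grown in mice. The endpoint was survival, with treated animals benchmarked against vehicle controls as a simple ratio.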

[1] = dose: 100.0 mg/kg/injection, schedule: Q01DX001 (ip), vehicle: carboxymethylcellulose (CMC)
[2] = dose: 200.0 mg/kg/injection, schedule: Q01DX001 (ip), vehicle: carboxymethylcellulose (CMC)
[3] = dose: 400.0 mg/kg/injection, schedule: Q01DX001 (ip), vehicle: carboxymethylcellulose (CMC)
[4] = dose: 100.0 mg/kg/injection, schedule: Q01DX009 (ip), vehicle: saline with Tween-80
[5] = dose: 200.0 mg/kg/injection, schedule: Q01DX009 (ip), vehicle: saline with Tween-80
[6] = dose: 400.0 mg/kg/injection, schedule: Q01DX009 (ip), vehicle: saline with Tween-80
[7] = dose: 12.5 mg/kg/injection, schedule: Q01DX009 (ip), vehicle: saline with Tween-80
[8] = dose: 25.0 mg/kg/injection, schedule: Q01DX009 (ip), vehicle: saline with Tween-80
[9] = dose: 50.0 mg/kg/injection, schedule: Q01DX009 (ip), vehicle: saline with Tween-80
[10] = dose: 100.0 mg/kg/injection, schedule: Q01DX009 (ip), vehicle: Klucel (hydroxypropylcellulose) (HPC)
[11] = dose: 200.0 mg/kg/injection, schedule: Q01DX009 (ip), vehicle: Klucel (hydroxypropylcellulose) (HPC)
[12] = dose: 400.0 mg/kg/injection, schedule: Q01DX009 (ip), vehicle: Klucel (hydroxypropylcellulose) (HPC)
[13] = dose: 100.0 mg/kg/injection, schedule: Q04DX003 (ip), vehicle: Klucel (hydroxypropylcellulose) (HPC)
[14] = dose: 200.0 mg/kg/injection, schedule: Q04DX003 (ip), vehicle: Klucel (hydroxypropylcellulose) (HPC)
[15] = dose: 400.0 mg/kg/injection, schedule: Q04DX003 (ip), vehicle: Klucel (hydroxypropylcellulose) (HPC)
[16] = dose: 400.0 mg/kg/injection, schedule: Q01DX001 (ip), vehicle: saline
[17] = dose: 100.0 mg/kg/injection, schedule: Q01DX001 (ip), vehicle: saline
[18] = dose: 200.0 mg/kg/injection, schedule: Q01DX001 (ip), vehicle: saline

Measured: T/C

CCOC(=O)c1nn2c(C)nnc2s1
inactive: [1] 98 % of control | [2] 96 % of control | [3] 98 % of control

Cc1cc([N+](=O)[O-])ccc1NC(=O)Nc1ccccc1F
inactive: [4] 102 % of control | [5] 86 % of control | [6] 96 % of control

C1SCSCS1
inactive: dose: 100.0 mg/kg/injection, schedule: Q04DX002 (ip), vehicle: Klucel (hydroxypropylcellulose) (HPC) 104 % of control | dose: 200.0 mg/kg/injection, schedule: Q04DX002 (ip), vehicle: Klucel (hydroxypropylcellulose) (HPC) 96 % of control | dose: 400.0 mg/kg/injection, schedule: Q04DX002 (ip), vehicle: Klucel (hydroxypropylcellulose) (HPC) 93 % of control

CCOC(=O)c1c(C)nc(C)c(C(=O)OCC)c1-c1ccc(N(C)C)cc1
inactive: dose: 25.6 mg/kg/injection, schedule: Q04DX002 (ip), vehicle: saline with Tween-80 101 % of control | dose: 64.0 mg/kg/injection, schedule: Q04DX002 (ip), vehicle: saline with Tween-80 97 % of control

O=[N+]([O-])c1ccc(Cl)c2ccccc12
inactive: [7] 94 % of control | [8] 91 % of control | [9] 87 % of control | [4] 91 % of control | [5] 88 % of control

COc1ccc(Br)cc1C1(O)C2C=CC1CC2 (stereo not drawn)
inactive: [10] 102 % of control | [11] 102 % of control | [12] 98 % of control

CCC(CC)C(O)CC(O)CC(C)C (stereo not drawn)
inactive: dose: 25.0 mg/kg/injection, schedule: Q04DX003 (ip), vehicle: other 100 % of control | dose: 50.0 mg/kg/injection, schedule: Q04DX003 (ip), vehicle: other 106 % of control | dose: 100.0 mg/kg/injection, schedule: Q04DX003 (ip), vehicle: other 101 % of control

CC(=O)[O][Hg][c]1cc(-c2ccc(N=Nc3c(S(=O)(=O)O)cc4cccc(N)c4c3O)cc2)ccc1N=Nc1c(S(=O)(=O)O)cc2cccc(N)c2c1O
inactive: dose: 3.13 mg/kg/injection, schedule: Q01DX009 (ip), vehicle: saline with Tween-80 86 % of control | dose: 6.25 mg/kg/injection, schedule: Q01DX009 (ip), vehicle: saline with Tween-80 86 % of control | [7] 92 % of control

O=C(O)CCC(=O)Nc1cc(C(F)(F)F)ccc1Cl
inactive: dose: 100.0 mg/kg/injection, schedule: Q04DX002 (ip), vehicle: saline 102 % of control | dose: 200.0 mg/kg/injection, schedule: Q04DX002 (ip), vehicle: saline 97 % of control | dose: 400.0 mg/kg/injection, schedule: Q04DX002 (ip), vehicle: saline 108 % of control

NC(=S)N/N=C1/C(=O)c2cccc3cccc1c23
inactive: dose: 75.0 mg/kg/injection, schedule: Q01DX001 (ip), vehicle: other 96 % of control

COc1ccc(NC(=O)CCN2CC2)cc1
inactive: dose: 12.5 mg/kg/injection, schedule: Q01DX001 (ip), vehicle: saline 105 % of control | dose: 25.0 mg/kg/injection, schedule: Q01DX001 (ip), vehicle: saline 97 % of control | [8] 103 % of control | dose: 50.0 mg/kg/injection, schedule: Q01DX001 (ip), vehicle: saline 103 % of control | [9] 95 % of control | dose: 100.0 mg/kg/injection, schedule: Q01DX001 (ip), vehicle: alcohol 93 % of control | [4] 91 % of control | dose: 200.0 mg/kg/injection, schedule: Q01DX001 (ip), vehicle: alcohol 86 % of control

O=C1OC(=O)C2C(c3ccccc3)C=CC(c3ccccc3)C12 (stereo not drawn)
inactive: [9] 98 % of control | [4] 108 % of control | dose: 100.0 mg/kg/injection, schedule: Q04DX003 (ip), vehicle: saline 92 % of control | [5] 98 % of control | dose: 200.0 mg/kg/injection, schedule: Q04DX003 (ip), vehicle: saline 108 % of control

CC12CCC(O)CC1CCC1C2CCC2(C)C(C(=O)O)CCC12 (stereo not drawn)
inactive: dose: 100.0 mg/kg/injection, schedule: Q04DX002 (ip), vehicle: gum acacia 99 % of control | dose: 200.0 mg/kg/injection, schedule: Q04DX002 (ip), vehicle: gum acacia 86 % of control | dose: 400.0 mg/kg/injection, schedule: Q04DX002 (ip), vehicle: gum acacia 89 % of control

COc1ccc(Cl)cc1NC(=O)Nc1ccc(Cl)c(Cl)c1
inactive: [10] 95 % of control | [13] 112 % of control | [11] 92 % of control | [14] 89 % of control | [12] 102 % of control | [15] 109 % of control

CN1CCCCCC1
inactive: dose: 50.0 mg/kg/injection, schedule: Q01DX009 (ip), vehicle: acetone 86 % of control | dose: 100.0 mg/kg/injection, schedule: Q01DX009 (ip), vehicle: acetone 110 % of control

Clc1ccc(OCC2=NCCc3ccccc32)cc1
inactive: dose: 300.0 mg/kg/injection, schedule: Q01DX001 (ip), vehicle: saline 98 % of control | [16] 104 % of control

CC(C)C(C)(O)C(N)=O (stereo not drawn)
inactive: [17] 106 % of control | [18] 101 % of control

COc1ccc(OC)c2c1C(=O)c1ccccc1C2=O
inactive: [8] 107 % of control | dose: 50.0 mg/kg/injection, schedule: Q01DX001 (ip), vehicle: carboxymethylcellulose (CMC) 102 % of control | [9] 104 % of control | [1] 108 % of control | [4] 104 % of control | [2] 102 % of control | [5] 107 % of control | [3] 113 % of control | [6] 111 % of control

Cc1ccccc1Oc1ccccc1N
inactive: dose: 100.0 mg/kg/injection, schedule: Q01DX009 (sc), vehicle: olive oil, sesame oil, peanut oil 101 % of control | dose: 100.0 mg/kg/injection, schedule: Q04DX003 (sc), vehicle: olive oil, sesame oil, peanut oil 110 % of control | dose: 200.0 mg/kg/injection, schedule: Q01DX009 (sc), vehicle: olive oil, sesame oil, peanut oil 101 % of control | dose: 200.0 mg/kg/injection, schedule: Q04DX003 (sc), vehicle: olive oil, sesame oil, peanut oil 94 % of control | dose: 400.0 mg/kg/injection, schedule: Q01DX009 (sc), vehicle: olive oil, sesame oil, peanut oil 97 % of control | dose: 400.0 mg/kg/injection, schedule: Q04DX003 (sc), vehicle: olive oil, sesame oil, peanut oil 116 % of control

Cc1ccc(C)c(NC(=O)Nc2ccccc2)c1
inactive: [10] 100 % of control | [13] 98 % of control | [11] 94 % of control | [14] 96 % of control | [12] 98 % of control | [15] 91 % of control

CN/C([S-])=N/N=C/C(=N/N=C(\[S-])NC)c1ccccc1.[Zn+2]
inactive: dose: 6.25 mg/kg/injection, schedule: Q04DX002 (ip), vehicle: Klucel (hydroxypropylcellulose) (HPC) 101 % of control | dose: 12.5 mg/kg/injection, schedule: Q04DX002 (ip), vehicle: Klucel (hydroxypropylcellulose) (HPC) 97 % of control

O=C(O)C(SC(C(=O)O)c1ccccc1)c1ccccc1 (stereo not drawn)
inactive: dose: 75.0 mg/kg/injection, schedule: Q04DX003 (ip), vehicle: saline with Tween-80 94 % of control | [17] 93 % of control | dose: 150.0 mg/kg/injection, schedule: Q04DX003 (ip), vehicle: saline with Tween-80 96 % of control | [18] 104 % of control | dose: 300.0 mg/kg/injection, schedule: Q04DX003 (ip), vehicle: saline with Tween-80 104 % of control | [16] 98 % of control

N#CC1CCCC1=O (stereo not drawn)
inactive: dose: 5.0 mg/kg/injection, schedule: Q01DX009 (ip), vehicle: saline 97 % of control | dose: 10.0 mg/kg/injection, schedule: Q01DX009 (ip), vehicle: saline 101 % of control | dose: 20.0 mg/kg/injection, schedule: Q01DX009 (ip), vehicle: saline 106 % of control

COC(=O)C(Cc1[nH]cnc1N=Nc1ccc(Br)cc1)NC(C)=O (stereo not drawn)
inactive: dose: 100.0 mg/kg/injection, schedule: Q01DX001 (ip), vehicle: saline with Tween-80 107 % of control | dose: 200.0 mg/kg/injection, schedule: Q01DX001 (ip), vehicle: saline with Tween-80 96 % of control | dose: 400.0 mg/kg/injection, schedule: Q01DX001 (ip), vehicle: saline with Tween-80 96 % of control

CC1(C)C2(C(N)=O)C(=O)NC(=O)C12C(=O)O (stereo not drawn)
inactive: dose: 200.0 mg/kg/injection, schedule: Q04DX002 (ip), vehicle: saline with Tween-80 92 % of control
